{"source": "paper PMC9503518", "about": "“Antibacterial and Antifungal Properties of a Novel Antimicrobial Peptide GK-19 and Its Application in Skin and Soft Tissue Infections Induced by MRSA or Candida albicans” (Pharmaceutics, 2022)", "key": {"[1]": {"experiment": "Peptide stability in rat serum by HPLC", "type": "in vitro ADME", "conditions": "10 mg/mL in rat serum, 37 °C, 200 rpm, 24 h, HPLC peak area 220 nm, repeated three times; read-out: peptide remaining after 24 h of co-incubation with rat serum", "procedure": "(§1) Antimicrobial peptides were dissolved in water or rat serum with a concentration of 10 mg/mL. The solution was incubated at 37 °C, 200 rpm for different time periods, and diluted 50 times for the HPLC analysis. In water, the incubation time was 0 h and 48 h. In rat serum, the incubation time was 0, 2, 4, 7, 12, 24 or 48 h. Each incubation condition was repeated three times. HPLC was conducted on a Waters HPLC system, which consisted of a 2996 photodiode array detector, a 2695 separation module and a temperature control column oven. Column: Sinochrom ODS-BP, 5 μm, 4.6 × 250 mm (Dalian Elite Analytical Instruments Co., Ltd., Dalian, China). Mobile phase: A: 100% ACN + 0.1% TFA; B: 100% Water + 0.1% TFA. Gradient elution: 0–20 min, 95% B–100% A; 20–25 min, 100% A. Detection wavelength: 220 nm. Flow rate: 1 mL/min. Sample volume: 50 μL (0.2 mg/mL)."}, "Kunming mice": {"tested_on": "Kunming mice", "conditions": "mouse, in vivo, iv", "procedure": "Forty healthy male Kunming mice weighing ~25 g (5–6 weeks old) were injected intravenously with 100 μL of GK-19 with concentrations of 5 μmol/kg (n = 15) or 25 μmol/kg (n = 15). Mice blood samples (n = 5, per group and per time point) were collected from the mice’s eyeballs on days 1, 3 and 7 after injection for renal function test and liver function test. Meanwhile, major organs including lungs, heart, kidneys, liver and spleen were also harvested for hematoxylin and eosin staining on days 1, 3 and 7 after injection. To monitor the body weight changes in mice after injection of GK-19, five healthy male Kunming mice weighing ~25 g were injected intravenously with 100 μL of GK-19 with concentrations of 25 μmol/kg. Mice weights were recorded daily for seven days.\nThe hematoxylin and eosin staining in this study was carried out by Servicebio (Wuhan, China). Briefly, the obtained skin tissues were soaked in 4% paraformaldehyde solution (Beyotime, China) and fixed for more than 24 h. Then, they were dehydrated and embedded with paraffin, and tissue sections having thicknesses of 4 μm were prepared. After deparaffinization and rehydration, hematoxylin and eosin staining was performed."}, "[2]": {"experiment": "Peptide stability in water by HPLC", "type": "physicochemical", "conditions": "10 mg/mL in water, 37 °C, 200 rpm, 0 and 48 h, HPLC 220 nm, repeated three times", "procedure": "as §1"}, "[3]": {"tested_on": "human keratinocytes cells (HaCaT cells)", "procedure": "(§2) Rat pulmonary artery smooth muscle cells (RPASMCs, primary cells separated by our laboratory) and human keratinocytes cells (HaCaT cells, Mingjing Biology, Shanghai, China) were cultured in high-glucose Dulbecco’s Modified Eagle Medium (DMEM), supplemented with 10% fetal bovine serum (FBS). Human umbilical vein endothelial cells (HUVECs, BeNa Culture Collection, Kunshan City, China) were cultured in the MCDB131 medium supplemented with 20% FBS and growth factor additives. Human embryonic kidney cells (293, Procell Life Science & Technology Co., Ltd., Wuhan, China) were cultured in minimum Eagle’s medium (MEM) supplemented with 10% FBS. All cells were cultured at 37 °C, with 5% CO2. All animals used in this study were supplied by the Medical Animal Test Center of Xi’an Jiaotong University and study protocols were approved by the Institutional Animal Care and Use Committee of the Ethics Committee of Health Science Center, Xi’an Jiaotong University (Ethical approval code: 2017-609).\n(§3) Cells were inoculated in 96-well plates at 5 × 10^3 cells/well and cultured at 37 °C under 5% CO2. The supernatant was removed, and the cells were washed three times with PBS. Next, 100 μL of fresh culture medium containing different antimicrobial peptides was added (peptide concentration: 0, 1.0, 2.0, 5.0, 10, 25, 50 and 100 μM). Each concentration was repeated five times. Then, 10 μL of CCK-8 reagent was added 48 h later, followed by another two hours of incubation. The absorbance at 450 nm was measured using the same Multilabel Reader. Cellular growth viability was calculated using the following equation:Viability (%) = (mean absorbance value of treatment group − mean absorbance value of blank group group)/(mean absorbance value of control group − mean absorbance value of blank group) × 100. (2)"}, "[4]": {"tested_on": "Human embryonic kidney cells (293)", "procedure": "as §2, §3"}, "[5]": {"tested_on": "Human umbilical vein endothelial cells (HUVECs)", "procedure": "as §2, §3"}, "[6]": {"tested_on": "Rat pulmonary artery smooth muscle cells (RPASMCs)", "procedure": "as §2, §3"}}, "note": "Where no end group is shown, it is not given here.", "data": [{"sequence": "GFLFKLIPKAIKKLISKFK [GK-19]", "values": [{"measurement": "remaining at 24 h, 10 mg/mL", "setting": "[1]", "value": "> 50", "unit": "%"}, {"measurement": "body weight change", "setting": "Kunming mice", "value": "gradual gain in body weight"}, {"measurement": "histology of major organs (heart, liver, spleen, lungs, kidneys)", "setting": "Kunming mice", "value": "no observable tissue damage, necrosis, or inflammation"}, {"measurement": "liver and renal function tests", "setting": "Kunming mice", "value": "no difference from that in healthy mice"}, {"measurement": "time for which structural stability was retained in water", "setting": "[2]", "value": "≥ 48", "unit": "h"}, {"measurement": "cytotoxicity at the effective antimicrobial concentration, HaCaT", "setting": "[3]", "value": "almost no apoptotic cells"}, {"measurement": "cells surviving, HaCaT", "setting": "[3]; 48 h, 100 μM", "value": "more than 42%"}, {"measurement": "cytotoxicity at the effective antimicrobial concentration, 293 cells", "setting": "[4]", "value": "almost no apoptotic cells"}, {"measurement": "cell viability, 293 cells", "setting": "[4]; 100 µM", "value": "less than 20%"}, {"measurement": "cytotoxicity at the effective antimicrobial concentration, HUVECs", "setting": "[5]", "value": "almost no apoptotic cells"}, {"measurement": "cell viability, HUVECs", "setting": "[5]; 100 µM", "value": "less than 20%"}, {"measurement": "cytotoxicity at the effective antimicrobial concentration, RPASMCs", "setting": "[6]", "value": "almost no apoptotic cells"}, {"measurement": "cell viability, RPASMCs", "setting": "[6]; 100 µM", "value": "less than 20%"}]}]}
